Test results from paper PMC8269693 (ACS Chemical Neuroscience, 2021).
pKd: −log10 of the molar value.

Experiments:
[1] = system: 5xFAD mice; conditions: cited from earlier work
[2] = system: SH-SY5Y cells; assay: Protection from STS-induced cell death, MTT assay, TrkB-deficient SH-SY5Y cells; type: cell-based
[3] = system: AD animal models; conditions: cited from earlier work
[4] = target: GST-TrkB ECD (Homo sapiens, UniProt Q16620); assay: Biacore binding assay, GST-TrkB ECD
[5] = system: BR6 cells; assay: Protection from STS-induced cell death, MTT assay, BR6 cells; type: cell-based, human
[6] = system: TrkB; assay: TrkB activation in BR6 cells; type: cell-based, human; conditions: data not shown
[7] = system: TrkB; assay: TrkB activation in SH-SY5Y cells; type: cell-based; conditions: data not shown
[8] = target: TrkB Ig2 (Homo sapiens, UniProt Q16620); assay: Biacore binding assay, TrkB Ig2
TrkB Ig2, sequence (Q16620 251-340): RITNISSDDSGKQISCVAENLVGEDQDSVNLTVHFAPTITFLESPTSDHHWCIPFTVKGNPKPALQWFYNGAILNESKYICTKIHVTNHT

[9] = target: TrkB Ig1 (Homo sapiens, UniProt Q16620); assay: Biacore binding assay, TrkB Ig1
TrkB Ig1, sequence (Q16620 182-250): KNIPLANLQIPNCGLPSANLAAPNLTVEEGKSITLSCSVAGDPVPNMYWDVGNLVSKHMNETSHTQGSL

GST-TrkB ECD, sequence (Q16620 32-428): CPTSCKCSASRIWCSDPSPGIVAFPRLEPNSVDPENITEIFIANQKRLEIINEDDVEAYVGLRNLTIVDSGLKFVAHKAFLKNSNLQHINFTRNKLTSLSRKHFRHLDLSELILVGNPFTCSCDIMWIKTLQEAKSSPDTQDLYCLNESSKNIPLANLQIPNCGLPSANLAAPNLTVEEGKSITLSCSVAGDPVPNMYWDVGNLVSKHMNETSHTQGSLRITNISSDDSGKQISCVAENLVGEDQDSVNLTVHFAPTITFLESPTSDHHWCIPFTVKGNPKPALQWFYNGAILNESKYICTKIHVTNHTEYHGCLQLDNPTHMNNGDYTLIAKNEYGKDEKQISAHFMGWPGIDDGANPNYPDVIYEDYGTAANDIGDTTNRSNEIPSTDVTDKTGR

In the case of `CNC(=O)Oc1ccc2c(=O)cc(-c3ccccc3)oc2c1OC(=O)NC` [R13], the Aβ deposition ([1]; chronic oral administration) is given as “inhibits Aβ deposition” and the memory deficits ([1]; dose-dependent) is given as “improves memory deficits”.
For `O=c1cc(-c2ccccc2)oc2c(O)c(O)ccc12` [7,8-DHF, 7,8-dihydroxyflavone], the “protective effect via MTT assay” value [2] is listed as “neither of them displayed a demonstrable effect”, the “levels of Aβ40 and Aβ42” value [3] is listed as “reduces the levels of Aβ40 and Aβ42” and the “learning and memory deficits” value ([3]; different AD animal models) is listed as “rescues learning and memory deficits”. For the same compound, the pKd [4] was 6.73, the “protective profile via MTT assay” value [5] was “comparable protective profiles” and the TrkB activation [6] was “robustly provoked TrkB activation”. The TrkB activation [7] was “barely visible”, the “association with Ig2 domain” value [8] was “none of them associated with the Ig1 or Ig2 domains” and the “association with Ig1 domain” value [9] was “none of them associated with the Ig1 or Ig2 domains”.
